Several values for one entry are separate records, joined by “and”; a condition that tells them apart may be missing. Equal entries are not always repeated.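 A five-concentration, 48-hour dose response in 96-well plates underlies each endpoint, interpolated linearly between surrounding concentrations. At the GI50, growth is halved. At the TGI there is no net growth.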
Assays:
Assay in all cases: growth of human tumour cells (NCI), 48 h
UACC-257 melanoma = test system: UACC-257 melanoma
OVCAR-4 ovarian = test system: OVCAR-4 ovarian
MDA-MB-435 = test system: MDA-MB-435
HOP-62 NSCLC = test system: HOP-62 NSCLC
K-562 leukemia = test system: K-562 leukemia
M14 melanoma = test system: M14 melanoma
HOP-92 NSCLC = test system: HOP-92 NSCLC
OVCAR-3 ovarian = test system: OVCAR-3 ovarian
SK-MEL-5 melanoma = test system: SK-MEL-5 melanoma
NCI-H23 lung = test system: NCI-H23 lung

Structure (SMILES)	GI50 (UACC-257 melanoma)	TGI (UACC-257 melanoma)	GI50 (OVCAR-4 ovarian)	TGI (OVCAR-4 ovarian)	GI50 (MDA-MB-435)	TGI (MDA-MB-435)	GI50 (HOP-62 NSCLC)	TGI (HOP-62 NSCLC)	GI50 (K-562 leukemia)	TGI (K-562 leukemia)	GI50 (M14 melanoma)	TGI (M14 melanoma)	GI50 (HOP-92 NSCLC)	TGI (HOP-92 NSCLC)	GI50 (OVCAR-3 ovarian)	TGI (OVCAR-3 ovarian)	GI50 (SK-MEL-5 melanoma)	TGI (SK-MEL-5 melanoma)	GI50 (NCI-H23 lung)	TGI (NCI-H23 lung)
Cc1ccc(Nc2cc(Cl)c([N+](=O)[O-])cc2[N+](=O)[O-])cc1	5250 nM	15.7 µM	4.52 µM	16.2 µM	3070 nM	10.8 µM	5820 nM	16.2 µM	614 nM	> 100 µM	3960 nM	15.6 µM	2690 nM	9.48 µM	3330 nM	7.85 µM	3.19 µM	9.51 µM	3660 nM	14.2 µM
C=C1C(=O)OC2C1C(OC(=O)/C(C)=C/C)CC(O)(CCl)C1C(O)C=C(C)C21O (centres undefined)		25.6 µM		30 µM		> 62.1 µM		> 67.2 µM		> 100 µM		23.8 µM		24.4 µM		27.7 µM		27.7 µM		28.3 µM
Cc1ccc(C(=O)NCCCOc2ccc(N3C(N)=NC(N)=NC3(C)C)cc2Cl)cc1S(=O)(=O)F	> 100000 nM	> 100 µM	81.2 µM	> 100 µM	56700 nM	> 100 µM	> 100000 nM	> 100 µM	8810 nM	> 100 µM	44700 nM	> 100 µM	> 100000 nM	> 100 µM	> 100000 nM	> 100 µM	4.78 µM	> 100 µM	12800 nM	> 100 µM
CNCC/C=C1\c2cc3c(cc2-c2c1c1cc(OC)c(OC)cc1c(=O)n2C)OCO3	3130 nM	12.4 µM	6.72 µM	44.8 µM	836 nM	15 µM	596 nM	21.9 µM	196 nM		621 nM	17 µM	301 nM	2.74 µM	1040 nM	17.9 µM	0.548 µM	2.89 µM	1330 nM	7.75 µM
Cc1ccc(S(=O)(=O)OCC#CCOS(=O)(=O)c2ccc(C)cc2)cc1	1920 nM	4.07 µM	4.81 µM	13.6 µM	1900 nM	4.3 µM	2350 nM	5.69 µM	2290 nM	10.3 µM	2590 nM	7.65 µM	1970 nM	4.17 µM	1850 nM	3.36 µM	3.69 µM	9.96 µM	1990 nM	5.04 µM
CC[C@@]1(OC(=O)C(N)CCCCN)C(=O)OCc2c1cc1n(c2=O)Cc2cc3ccccc3nc2-1 (some centres undefined)		1.56 µM		2.84 µM		1.26 µM		0.0667 µM		> 33.1 µM		1.37 µM		1.72 µM		2.37 µM		0.184 µM		0.282 µM
O=C(O)C1CC=CCC1C(=O)Nc1cccc(O)c1 (centres undefined)		> 100 µM		> 100 µM		> 100 µM		> 100 µM		> 100 µM		> 100 µM		> 100 µM		> 100 µM		> 100 µM		> 100 µM
Cc1c(Cl)c(=O)oc2cc(OC/C=C3\CCC(=O)O3)ccc12	27200 nM	99 µM	15.2 µM	36.1 µM	25300 nM	96.3 µM	23600 nM	66.1 µM	28200 nM	78.7 µM	13300 nM	31.7 µM	13000 nM	30 µM	14700 nM	33.1 µM	21 µM	52.2 µM	17400 nM	32.7 µM
O=C1Nc2cc(-c3cccc(O)c3)ccc2/C1=C/c1ccc[nH]1	2810 nM	8.53 µM	0.305 µM	16.2 µM	391 nM	1.66 µM	2300 nM	8.55 µM	355 nM	> 100 µM	1680 nM	3.54 µM	1900 nM	6.26 µM	1430 nM	5.85 µM	1.6 µM	3.32 µM	182 nM	4.56 µM
CCN(CC)c1c(-c2ccccc2)n[nH]c1C(=O)OC	12600 nM	36.5 µM	54.1 µM	> 100 µM	20100 nM	55.6 µM	44600 nM	> 100 µM	31200 nM	> 100 µM	30100 nM	86.9 µM	17800 nM	51.1 µM	15100 nM	36.8 µM	14.5 µM	27.6 µM	42400 nM	> 100 µM
CS(=O)(=O)Nc1cc(-c2ccc3ncnc(Nc4ccc(F)c(Cl)c4)c3c2)cnc1Cl	503 nM and 706 nM	7.55 µM and 10.4 µM	1.22 µM and 1.47 µM	10.8 µM and 10.4 µM	605 nM and 537 nM	7.03 µM and 4.96 µM	295 nM and 1120 nM	9.01 µM and 27.1 µM	1710 nM	> 82.4 µM	477 nM and 718 nM	4.53 µM and 6.29 µM	162 nM and 78.2 nM	0.893 µM and 0.797 µM	360 nM and 616 nM	1.92 µM and 5.33 µM	0.41 µM	1.69 µM	484 nM and 570 nM	14.7 µM and 10.6 µM
c1ccc(CN2CCc3[nH]c4ccccc4c3C2)cc1		37.1 µM		84.4 µM		46.7 µM		> 73.5 µM		55.1 µM		33.1 µM		62.1 µM		> 74.7 µM		31.3 µM		> 92.6 µM
COCCOCCOCc1n(Cc2ccc3ccccc3c2)c2ccccc2[n+]1Cc1ccc2ccccc2c1	289 nM	0.988 µM	0.231 µM	1.19 µM	282 nM	1.23 µM	1170 nM	2.59 µM	239 nM	1.46 µM	491 nM	1.99 µM	149 nM	0.829 µM	322 nM	1.48 µM	0.216 µM	0.544 µM	392 nM	1.73 µM

Source: PubChem BioAssay (NCI)
